{"source": "patent US20240366611A1", "about": "“METHODS OF TREATING A DISEASE OR DISORDER” (Ascentage Pharma (Suzhou) Co., Ltd., priority 2021, published 2024)", "format_in_all_cases": "cell-based", "settings_in_all_cases": "7 days of treatment", "key": {"[1]": {"system": "HBG mRNA in human CD34+ HSC", "test": "HBG mRNA level in human CD34+ HSC (qRT-PCR)", "procedure": "(§1) Human cord blood CD34+ hematopoietic stem cells (HSC) were first expanded in the expansion medium (StemSpan SFEM II+StemSpan CD34 Expansion Supplement) to achieve the desired number of cells, and then differentiated in differentiation medium (StemSpan SFEM II+StemSpan Erythroid Expansion Supplement (100×)) for three days without drug treatment. Various concentrations of Cpd. 73 were added on the fourth day of differentiation and further incubated with the cells for another 7 days. 33 mM Hydroxyurea was used as the control.\nAfter 7 days of treatment, the cells were collected. Total RNA was isolated using Trizol LS reagent (Invitrogen-10296028) and 1 μg RNA of each sample was reverse transcribed into cDNA using High Capacity cDNA Reverse Transcription Kit (AB (Applied Biosystems)-4374966), according to the manufacturer's instructions. Quantitative RT-PCR (qRT-PCR) was performed using an Applied Biosystems QuantStudio 7 Flex system with the primer pairs shown as below: hHBG-mRNA-F1 (5′-[…]-3′) and hHBG-mRNA-R1 (5′-TCACTCAGCTGGGCAAAGG-3′). […] The HBG mRNA level were 1.09-, 2.49-, 7.84-, 9.69- and 12.2-folds of the vehicle group when the cells were treated with 0.01 μM, 0.03 μM, 0.1 μM, 0.3 μM and 1.0 μM Cpd. 73 respectively. […] 73 which increased HBG mRNA by 12.2 folds (p<0.0001, vs. vehicle). The HBG mRNA level of cells treated with 33 mM Hydroxyurea, an approved medicine for SCD, was 6.46-folds of the vehicle group."}, "HbF in human CD34+ HSC": {"system": "HbF in human CD34+ HSC", "test": "HbF concentration in human CD34+ HSC by ELISA", "design": "HbF concentration, folds of the vehicle group: dose or concentration left out as unconfirmed", "procedure": "as §1\nAfter 7 days of treatment, the cells were collected and lysed. The concentration of HbF in the cell lysate was determined using a Human Fetal Hemoglobin (HBF) ELISA Kit (MyBioSource, MBS2024474). […] The cellular HbF concentration were 1.27-, 1.39-, 1.52-, 1.58- and 1.69-folds of the vehicle group when the cells were treated with 0.01 μM, 0.03 μM, 0.1 μM, 0.3 μM and 1.0 μM Cpd. 73 respectively. […] 73 where the cellular HbF concentration was 1.69-folds of the vehicle group (p<0.01). HbF concentration of cells treated with 33 mM Hydroxyurea was 1.18-folds of the vehicle group. Clinically, small increases of HbF concentration (1-5%) have the potential to provide clinical benefits to all SCD patients."}, "[2]": {"system": "HbF+ cells in human CD34+ HSC", "test": "HbF+ cell % in human CD34+ HSC by FACS", "procedure": "as §1\nAfter 7 days of treatment, the cells were collected and stained with PE-conjugated Mouse Anti-Human Fetal Hemoglobin (BD, 560041). The percentage of HbF+ cells were quantified by FACS. […] 73 respectively. […] 73 where HbF+ cell % was 2.58-folds of the vehicle group (p<0.0001). The % of HbF+ cells was 1.82-folds of the vehicle group when the cells were treated with 33 mM Hydroxyurea."}}}
{"compound": "NC(=O)NO", "note": "[Hydroxyurea, reference compound]", "values": [{"measurement": "HBG mRNA level, folds of the vehicle group", "setting": "[1]", "value": 6.46, "unit": "folds"}, {"measurement": "HbF concentration, folds of the vehicle group", "setting": "HbF in human CD34+ HSC", "value": 1.18, "unit": "folds"}, {"measurement": "% of HbF+ cells, folds of the vehicle group", "setting": "[2]", "value": 1.82, "unit": "folds"}]}
